“Also recorded” adds a separate entry of the source.
How the values were obtained:
[1] = tested on: platelets; assay: Whole blood platelet aggregation: flow cytometric single platelet count in fixed and stabilised citrate-anticoagulated blood; type: cell-based
Source text: Referring to FIG. 1, there are illustrated dot plots by which the number of single platelets may be quantified. Once the number of single platelets has been determined, it is then possible to calculate the percentage degree of platelet aggregation. Quantification of single platelets in whole blood by flow cytometry required 50,000 red cell events which were collected in region P1 on a forward scatter/side scatter plot, as shown in FIG. 1a. CD42a fluorescence was plotted against forward scatter, and region P2 was selected by drawing a curved line to include all platelet-related events and excluding erythrocyte/platelet co-incidences marked “e/p”, as shown in FIG. 1b. EDTA-anti-coagulated blood, or citrate anti-coagulated blood containing EDTA thus containing unstimulated platelets, was used to set three rectangular gates to quantitate microparticles (P3), single platelets (P4), and microaggregates (P5). These gates were then applied to the dot plots obtained for stimulated samples of blood, recording single platelets in P4. An example of results from an ADP-stimulated, fixed sample in which the single platelet events (P4) reduced from 1716 to 182 (indicating the formation of platelet aggregates) is shown in FIGS. 1d, 1e and 1f.
Fixed and stabilised blood samples were mixed gently by repeated inversion of the sample tubes. 100 μl of the fixed blood was placed in a flow cytometry tube and centrifuged at 380 g for 5 minutes after which 90 μl of the supernatant is removed. The remaining 10 μl of fixed blood was then incubated with 10 μl of a 1 in 10 dilution of CD42a-FITC-labelled antibody for 20 min at 4° C. in the FACS tubes. 1 ml of FACSflow (or any other flow cytometry diluent) was added to the tubes immediately prior to reading on any flow cytometer equipped with a laser operating at an excitation wavelength of 488 nm and with detectors for measurement at suitable wavelengths for the selected fluorochromes (ie FITC). Appropriate software was used to acquire and analyse data on dot plots of forward scatter versus side scatter and forward scatter versus FITC fluorescence acquired with logarithmic amplification. Acquisition was stopped after recording 50,000 erythrocyte events. A sample of fixed unstimulated EDTA-anti-coagulated blood was used to set the vertical lines of three square gates P3, P4 and P5 on a forward scatter versus FITC fluorescence plot. These gates were adjusted to record microparticles in P3, single platelets in P4 and any microaggregates in P5 (see Example 2). The test samples are then analysed using the same gates. Larger aggregates would not be detected by the flow cytometer since they would be too large and cannot pass through the sample tube of the machine.
The single platelet count described above is a record of the number of single platelets present in each blood sample (recorded as single platelet events, ie the number of single platelets passing the laser) in relation to 50,000 erythrocyte events recorded, ie erythrocytes passing the laser. It is possible to calculate a true platelet count by using standard flow cytometry counting beads, such as those sold under the trade name Trucount. Aggregation is usually determined as a percentage, and in whole blood this may be recorded as a percentage fall in single platelets. […] It is therefore possible to calculate percentage aggregation directly from the recordings of single platelet events using the following formula:—
Where “EDTA count” is the number of platelet events (ie single platelets passing the laser) for a sample containing EDTA which has been fixed in the same way as the test samples, and where “Sample count” is the number of platelet events for the fixed test sample. […]

[2] = tested on: platelets; assay: ADP-induced platelet aggregation in blood of volunteers before and after treatment with clopidogrel or clopidogrel plus aspirin; conditions: ADP 10 μM stimulant tube, citrate blood, percentage of EDTA sample
[3] = tested on: platelet-monocyte conjugates; assay: Platelet-monocyte conjugates by flow cytometry (CD14 with CD42a or CD62P) in fixed and stabilised blood; type: cell-based; conditions: after incubation with collagen
Experimental: (§1) For example, fixed and stabilised samples are removed from the fridge and mixed well until the sedimented cells are fully re-suspended. 500 μl of each sample is then dispensed into appropriately labelled flow cytometry tubes and centrifuged for 10 min at 380 g. 450 μl of the supernatant is then removed, taking care not to disturb the red blood cell pellet. 10 μl of saturating concentrations of CD14-APCCy7 (used to distinguish monocytes and neutrophils) and CD42a-FITC or CD62P-PE (used to identify platelets bound to either monocytes or neutrophils) is then added to the tubes and incubated with the cells in the dark. After 25 minutes, 1 ml of Erythrolyse solution (AbD Serotec, Oxford, UK) is added to the cells and left to stand for 10 minutes to lyse any red blood cells. 1 ml of FACSflow is added and the cells centrifuged at 380 g. Supernatants are decanted and cells re-suspended in 2 ml of FACSflow to wash the cells. The cells are then centrifuged at 380 g again, the supernatant removed and the cells finally re-suspended in 300 μl of FACSflow to await reading on the flow cytometer.
(§2) Leukocytes are initially identified by logical gating from dot plots of forward scatter (cell size) and side scatter (cell granularity) profiles acquired with linear amplification. Fluorescence parameters are acquired with logarithmic amplification and 30,000 leukocyte events are collected for each blood sample. […] Lymphocytes may also be identified by CD14 negativity and a low forward scatter/side scatter profile, but platelet-lymphocyte conjugates are formed to a lesser extent and are not routinely quantitated. Platelet-monocyte and platelet-neutrophil conjugates are quantified as the percentage of monocytes or neutrophils expressing platelet CD42a or CD62P fluorescence in an interval gate which may be adjusted using an appropriate IgG control in each case. Median fluorescence values for CD42a or CD62P are also measured for each population of leukocytes tested. […]

[4] = tested on: platelet-neutrophil conjugates; assay: Platelet-neutrophil conjugates by flow cytometry (CD14 with CD42a or CD62P) in fixed and stabilised blood; type: cell-based; conditions: after incubation with collagen
Experimental: as §1, §2
Referring to FIG. 10, there are shown dot plots used for the identification of platelet-leukocyte conjugates in fixed and stabilised blood samples following incubation with (a) saline, or (b) collagen. […] Platelet-monocyte and platelet-neutrophil conjugate formation following stimulation with collagen is seen as a shift to the right in plot (iii) as the degree of platelet-specific CD42a fluorescence (ie marker expression) increases.
Referring to FIG. 12, there is shown the quantification of platelet-neutrophil conjugates (identified from gates P1 and P4 as shown in FIG. 10) which are detected with the platelet-specific markers CD42a or CD62P. […]

Compound: Nc1ncnc2c1ncn2[C@@H]1O[C@H](COP(=O)(O)OP(=O)(O)O)[C@@H](O)[C@H]1O [ADP, adenosine diphosphate]
- aggregation (percentage fall in single platelets) ([1]; 1 μM ADP, stirred 4 minutes): 27%
- aggregation (percentage fall in single platelets) ([1]; 3 μM ADP, stirred 4 minutes): 62%
- aggregation (percentage fall in single platelets) ([1]; 10 μM ADP, stirred 4 minutes): 89%
- single platelet events (P4) ([1]; ADP-stimulated fixed sample, per 50,000 red cell events, unstimulated 1716): 182

Compound: CCCCC/C=C\C/C=C\C/C=C\C/C=C\CCCC(=O)O [AA, arachidonic acid]
- degree of aggregation (percentage fall in single platelets) ([1]; 200 nM arachidonic acid, same donor, citrate-anticoagulated blood): 54%

Compound: CCCCC[C@H](O)/C=C/[C@@H]1[C@@H](C/C=C\CCCC(=O)O)[C@H]2CO[C@@H]1C2 [U46619]
- degree of aggregation (percentage fall in single platelets) ([1]; 1 μM U46619, same donor, citrate-anticoagulated blood): 96%

Compound: Thrombin Receptor Activating Peptide [TRAP]
- degree of aggregation (percentage fall in single platelets) ([1]; 10 μM TRAP, same donor, citrate-anticoagulated blood): 89%

Compound: COC(=O)[C@H](c1ccccc1Cl)N1CCc2sccc2C1 [clopidogrel]
- platelet aggregation after treatment compared with before treatment [2]: less aggregation; also recorded: inhibited

Compound: collagen
- single platelet events in P4 (sample count) ([1]; collagen 1 μg/ml, 4 minutes, per 50,000 erythrocyte events, EDTA count 1118): 693
- degree of aggregation (percentage fall in single platelets compared with EDTA sample) ([1]; collagen 1 μg/ml, stirred 4 minutes, citrate-anticoagulated blood): about 38%
- platelet-monocyte conjugates, percentage of parent monocyte population (CD42a, % gated) ([3]; saline 8.2): 64.1%
- platelet-monocyte conjugates, percentage of parent monocyte population (CD62P, % gated) ([3]; saline 9.3): 98.7%
- CD42a median fluorescence of monocyte population ([3]; saline 259): 832 arbitrary units
- platelet-neutrophil conjugates, percentage of parent neutrophil population (CD62P, % gated) ([4]; saline 7.3): 72.1%
- platelet-neutrophil conjugates, percentage of parent neutrophil population (CD42a, % gated) ([4]; saline 7.9): 21.9%
- CD62P median fluorescence of neutrophil population ([4]; saline 141): 688
- CD42a median fluorescence of neutrophil population ([4]; saline 142): 201

Compound: CC(=O)Oc1ccccc1C(=O)O [aspirin]
- effect on collagen-induced platelet aggregation ([1]; collagen 1, 2, 3, 4 μg/ml for 10 minutes, presence vs absence of aspirin, three donors): significantly reducing the amount of aggregation

Compound: Platelet Activating Factor [PAF]
- degree of aggregation (percentage fall in single platelets) ([1]; 3 μM PAF, same donor, citrate-anticoagulated blood): 70%

Reference: US20110059475A1, “STABILISATION OF BLOOD CELL CONJUGATES” (THE UNIVERSITY OF NOTTINGHAM, priority 2008, published 2011)
